15 compounds from patent publication US6828315B1, “1-Amino triazoloc4,3-a! quinazoline-5-ones and/or -5-thiones inhibiting phosphodiesterase IV” (Warner-Lambert LLC, priority 1999, dated 2004) can be followed below.

In the case of `O=c1c2cc(Br)ccc2n2c(N3CCN(c4ccccc4)CC3)nnc2n1Cc1ccccc1` [Compound 183, 4-Benzyl-7-bromo-1-(4-phenyl-piperazin-1-yl)-4H-[1,2,4]triazolo[4,3-a]quinazolin-5-one], the melting point stood at 238 °C.
The figure for `O=c1c2cc(Br)ccc2n2c(N3CC=CCC3)nnc2n1Cc1ccccc1` [Compound 185, 4-Benzyl-7-bromo-1-(3,6-dihydro-2H-pyridin-1-yl)-4H-[1,2,4]triazolo[4,3-a]quinazolin-5-one] is 172 °C; for `O=c1c2cc(Br)ccc2n2c(N3CC=CC3)nnc2n1Cc1ccccc1` [Compound 186, 4-Benzyl-7-bromo-1-(2,5-dihydro-pyrrol-1-yl)-4H-[1,2,4]triazolo[4,3-a]quinazolin-5-one] it is 210 °C; for `O=c1c2cc(Br)ccc2n2c(N3CCC(O)C3)nnc2n1Cc1ccccc1` (stereo not drawn) [Compound 187, 4-Benzyl-7-bromo-1-(3-hydroxy-pyrrolidin-1-yl)-4H-[1,2,4]triazolo[4,3-a]quinazolin-5-one] it is 176 °C.
The result for `CNc1nnc2n(Cc3ccccc3)c(=O)c3cc(Br)ccc3n12` [Compound 188, 4-Benzyl-7-bromo-1-methylamino-4H-[1,2,4]triazolo[4,3-a]quinazolin-5-one] reads 238 °C; that for `Cc1ccc2c(c1)c(=O)n(Cc1ccccc1)c1nnc(N3CCCC3)n21` [Compound 191, 4-Benzyl-7-methyl-1-pyrrolidin-1-yl-4H-[1,2,4]triazolo[4,3-a]quinazolin-5-one], 189 °C; that for `Cc1ccc2c(c1)c(=O)n(Cc1ccccc1)c1nnc(N(C)C)n21` [Compound 192, 4-Benzyl-1-dimethylamino-7-methyl-4H-[1,2,4]triazolo[4,3-a]quinazolin-5-one], 186 °C.
The figure for `Cc1ccc2c(c1)c(=O)n(Cc1ccccc1)c1nnc(N3CCSCC3)n21` [Compound 193, 4-Benzyl-7-methyl-1-thiomorpholin-4-yl-4H-[1,2,4]triazolo[4,3-a]quinazolin-5-one] is 265 °C; for `Cc1ccc2c(=O)n(Cc3ccccc3)c3nnc(N4CCCCCC4)n3c2c1` [Compound 194, 1-Azepan-1-yl-4-benzyl-8-methyl-4H-[1,2,4]triazolo[4,3-a]quinazolin-5-one] it is 202 °C; for `COc1ccc2c(c1)c(=O)n(Cc1ccccc1)c1nnc(N3CCCCCC3)n21` [Compound 195, 1-Azepan-1-yl-4-benzyl-7-methoxy-4H-[1,2,4]triazolo[4,3-a]quinazolin-5-one] it is 153 °C.
With `COc1ccc2c(c1)c(=O)n(Cc1ccccc1)c1nnc(N3CCCC3)n21` [Compound 196, 4-Benzyl-7-methoxy-1-pyrrolidin-1-yl-4H-[1,2,4]triazolo[4,3-a]quinazolin-5-one], the melting point was determined as 154 °C.
The figure for `N#Cc1ccc2c(c1)c(=O)n(Cc1ccccc1)c1nnc(N3CCCC3)n21` [Compound 197, 4-Benzyl-5-oxo-1-pyrrolidin-1-yl-4,5-dihydro-[1,2,4]triazolo[4,3-a]quinazoline-7-carbonitrile] is 219 °C; for `O=c1c2cc([N+](=O)[O-])ccc2n2c(N3CCCCCC3)nnc2n1Cc1ccccc1` [Compound 198, 1-Azepan-1-yl-4-benzyl-7-nitro-4H-[1,2,4]triazolo[4,3-a]quinazolin-5-one] it is 206 °C.
The result for `Cn1c(=O)c2ccccc2n2c(N3CCCCCC3)nnc12` [Compound 200, 1-(azepan-1-yl)-4-methyl-4H-[1,2,4]triazolo[4,3-a]quinazolin-5-one] reads 199 to 203 °C.
The result for `O=c1c2ccccc2n2c(N3CCCCCC3)nnc2n1Cc1ccccc1` [Compound 201, 1-(azepan-1-yl)-4-benzyl-4H-[1,2,4]triazolo[4,3-a]quinazolin-5-one] reads 157 °C.

The melting point is the temperature of the solid-liquid transition.
